Test results as given in PubChem BioAssay AID330 (DTP/NCI, 2004).
“And” between values parts separate entries of the source, which are not always exact repeats. Identical values can stand only once. Inconclusive results and toxic doses are left out. The calls were made as follows: active = survival T/C of 150% or more; inactive = T/C below 125% in these data. Peptide text beside a SMILES is read from it.

Test system: P388 leukemia ip, CD2F1 mice, survival T/C
Experiment: NCI In Vivo Anticancer Drug Screen. Data for tumor model P388 Leukemia (intraperitoneal) in CD2F1 (CDF1) mice
Details: endpoint: median survival time, higher = longer survival
How it was run: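 Mice carrying the transplanted tumor received test compound or vehicle. Survival was recorded in each group, and the value is the treated-group measurement divided by that of the vehicle-treated control group.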

[1] = dose: 50.0 mg/kg/injection, schedule: Q01DX005 (ip), vehicle: saline with Tween-80
[2] = dose: 200.0 mg/kg/injection, schedule: Q01DX005 (ip), vehicle: saline with Tween-80
[3] = dose: 50.0 mg/kg/injection, schedule: Q01DX009 (ip), vehicle: saline
[4] = dose: 100.0 mg/kg/injection, schedule: Q01DX009 (ip), vehicle: saline
[5] = dose: 200.0 mg/kg/injection, schedule: Q01DX009 (ip), vehicle: saline
[6] = dose: 60.0 mg/kg/injection, schedule: Q01DX005 (ip), vehicle: Klucel (hydroxypropylcellulose) (HPC)
[7] = dose: 120.0 mg/kg/injection, schedule: Q01DX005 (ip), vehicle: Klucel (hydroxypropylcellulose) (HPC)
[8] = dose: 240.0 mg/kg/injection, schedule: Q01DX005 (ip), vehicle: Klucel (hydroxypropylcellulose) (HPC)
[9] = dose: 25.0 mg/kg/injection, schedule: Q01DX009 (ip), vehicle: saline with Tween-80
[10] = dose: 50.0 mg/kg/injection, schedule: Q01DX009 (ip), vehicle: saline with Tween-80
[11] = dose: 100.0 mg/kg/injection, schedule: Q04DX003 (ip), vehicle: saline with Tween-80
[12] = dose: 200.0 mg/kg/injection, schedule: Q04DX003 (ip), vehicle: saline with Tween-80
[13] = dose: 100.0 mg/kg/injection, schedule: Q01DX005 (ip), vehicle: saline with Tween-80
[14] = dose: 12.5 mg/kg/injection, schedule: Q01DX009 (ip), vehicle: water
[15] = dose: 25.0 mg/kg/injection, schedule: Q01DX009 (ip), vehicle: water
[16] = dose: 50.0 mg/kg/injection, schedule: Q01DX009 (ip), vehicle: water

Measured: T/C

CC(=O)c1c(C)cc2cc(O)cc(OC3OC(CO)C(O)C(O)C3O)c2c1O (stereo unspecified)
inactive: dose: 1.5 mg/kg/injection, schedule: Q01DX005 (ip), vehicle: saline + alcohol 96 % of control | dose: 3.0 mg/kg/injection, schedule: Q01DX005 (ip), vehicle: saline + alcohol 103 % of control | dose: 6.0 mg/kg/injection, schedule: Q01DX005 (ip), vehicle: saline + alcohol 92 % of control | dose: 12.0 mg/kg/injection, schedule: Q01DX005 (ip), vehicle: saline + alcohol 108 % of control and 94 % of control | dose: 24.0 mg/kg/injection, schedule: Q01DX005 (ip), vehicle: saline + alcohol 100 % of control | dose: 48.0 mg/kg/injection, schedule: Q01DX005 (ip), vehicle: saline + alcohol 99 % of control

N#CC1=CC2C3C(=O)N(c4ccccc4)C(=O)C3C1N(Cc1ccccc1)C2c1ccccc1 (stereo unspecified)
inactive: dose: 12.5 mg/kg/injection, schedule: Q01DX005 (ip), vehicle: saline with Tween-80 95 % of control | dose: 12.5 mg/kg/injection, schedule: Q04DX002 (ip), vehicle: saline with Tween-80 102 % of control | dose: 25.0 mg/kg/injection, schedule: Q01DX005 (ip), vehicle: saline with Tween-80 91 % of control | dose: 25.0 mg/kg/injection, schedule: Q04DX002 (ip), vehicle: saline with Tween-80 94 % of control | [1] 89 % of control | dose: 50.0 mg/kg/injection, schedule: Q04DX002 (ip), vehicle: saline with Tween-80 94 % of control | [2] 87 % of control | dose: 200.0 mg/kg/injection, schedule: Q04DX002 (ip), vehicle: saline with Tween-80 87 % of control | dose: 400.0 mg/kg/injection, schedule: Q04DX002 (ip), vehicle: saline with Tween-80 89 % of control

NCCSCC(N)C(=O)O (stereo unspecified)
inactive: dose: 25.0 mg/kg/injection, schedule: Q01DX009 (ip), vehicle: saline 102 % of control | [3] 103 % of control | [4] 99 % of control | [5] 109 % of control

O=C1OCC/C1=C\NCCCCCCCCN/C=C1\CCOC1=O
inactive: [6] 97 % of control | [7] 102 % of control | [8] 105 % of control

NC1(C(=O)O)CCCC1C(=O)O (stereo unspecified)
inactive: [3] 99 % of control | [4] 99 % of control | [5] 90 % of control

O=S(=O)(CCc1ccccc1)c1nc2ccccc2s1
inactive: [6] 99 % of control | [7] 100 % of control | [8] 101 % of control

CC(=O)NC(=S)Nc1cccs1
inactive: dose: 12.5 mg/kg/injection, schedule: Q01DX009 (ip), vehicle: saline with Tween-80 99 % of control | [9] 103 % of control | [10] 95 % of control

Cc1ccc(S(=O)(=O)OC2CC(C(=O)O)N(S(=O)(=O)c3ccc(C)cc3)C2)cc1 (stereo unspecified)
inactive: [11] 100 % of control | [12] 95 % of control | dose: 400.0 mg/kg/injection, schedule: Q04DX003 (ip), vehicle: saline with Tween-80 95 % of control

CCN(CC)CCC#N
inactive: [3] 94 % of control | [4] 87 % of control | [5] 88 % of control

CCCSc1nc2ccc(N=Cc3ccccc3O)cc2s1
inactive: dose: 50.0 mg/kg/injection, schedule: Q01DX009 (ip), vehicle: Klucel (hydroxypropylcellulose) (HPC) 97 % of control | dose: 100.0 mg/kg/injection, schedule: Q01DX009 (ip), vehicle: Klucel (hydroxypropylcellulose) (HPC) 90 % of control | dose: 200.0 mg/kg/injection, schedule: Q01DX009 (ip), vehicle: Klucel (hydroxypropylcellulose) (HPC) 90 % of control

CC(=O)CC(=O)c1ccc(C)cc1.CC(=O)CC(=O)c1ccc(C)cc1.[Cu]
inactive: [9] 98 % of control | [10] 108 % of control and 113 % of control

CCCCCCCCCCCCCCCC[N+]1(CC)CCOCC1
inactive: dose: 1.56 mg/kg/injection, schedule: Q01DX009 (ip), vehicle: saline 105 % of control and 100 % of control | dose: 3.12 mg/kg/injection, schedule: Q01DX009 (ip), vehicle: saline 99 % of control | dose: 12.5 mg/kg/injection, schedule: Q01DX009 (ip), vehicle: saline 115 % of control and 105 % of control

COc1cc2c(c(OC)c1OC)CCC1C(=O)NN=C21 (stereo unspecified)
inactive: dose: 12.5 mg/kg/injection, schedule: Q04DX003 (ip), vehicle: Klucel (hydroxypropylcellulose) (HPC) 111 % of control | dose: 25.0 mg/kg/injection, schedule: Q04DX003 (ip), vehicle: Klucel (hydroxypropylcellulose) (HPC) 104 % of control | dose: 50.0 mg/kg/injection, schedule: Q04DX003 (ip), vehicle: Klucel (hydroxypropylcellulose) (HPC) 111 % of control

CCOP(=O)(Nc1cc2c(=O)n(C)cnc2cc1Cl)OCC
inactive: [11] 105 % of control | [12] 100 % of control

O=C1CCCC2=C1C1(OC3C=CC=CN23)C(=O)c2ccccc2C1=O (stereo unspecified)
inactive: [1] 103 % of control | [13] 97 % of control | [2] 92 % of control

COc1cc2ccncc2cc1O
inactive: dose: 3.13 mg/kg/injection, schedule: Q01DX009 (ip), vehicle: water 91 % of control | dose: 6.25 mg/kg/injection, schedule: Q01DX009 (ip), vehicle: water 95 % of control | [14] 100 % of control | [15] 95 % of control | [16] 103 % of control

O=C(O)C1CSC(c2ccc(O)cc2)N1 (stereo unspecified)
inactive: [3] 87 % of control | [4] 88 % of control | [5] 90 % of control

CNC(=O)N(C)C/C=C/CN(C)C(=O)NC
inactive: [3] 105 % of control | [4] 102 % of control | [5] 102 % of control

O=C1Oc2ccccc2CC1C(=O)c1ccc([N+](=O)[O-])cc1 (stereo unspecified)
inactive: [1] 99 % of control | [13] 106 % of control | [2] 103 % of control

CC(C)C(NC(=O)C(CCCN=C(N)N)NC(=O)C(N)CCCCN)C(N)=O (stereo not drawn) (H-Lys-Arg-Val-NH2; configuration not given here)
inactive: [14] 105 % of control | [15] 103 % of control | [16] 99 % of control | dose: 100.0 mg/kg/injection, schedule: Q01DX009 (ip), vehicle: water 105 % of control | dose: 200.0 mg/kg/injection, schedule: Q01DX009 (ip), vehicle: water 100 % of control

S=c1nn[nH]n1-c1ccccc1.[Cd]
inactive: dose: 3.13 mg/kg/injection, schedule: Q01DX009 (ip), vehicle: saline with Tween-80 98 % of control | dose: 6.25 mg/kg/injection, schedule: Q01DX009 (ip), vehicle: saline with Tween-80 94 % of control

COc1cccc(C=O)c1OS(=O)(=O)c1ccc(C)cc1
inactive: dose: 25.0 mg/kg/injection, schedule: Q01DX009 (ip), vehicle: other 101 % of control | dose: 50.0 mg/kg/injection, schedule: Q01DX009 (ip), vehicle: other 108 % of control | dose: 100.0 mg/kg/injection, schedule: Q01DX009 (ip), vehicle: other 108 % of control

CCOC(=O)CNC(C)c1ccc(F)cc1 (stereo unspecified)
inactive: dose: 50.0 mg/kg/injection, schedule: Q01DX005 (ip), vehicle: saline 100 % of control | dose: 100.0 mg/kg/injection, schedule: Q01DX005 (ip), vehicle: saline 105 % of control | dose: 200.0 mg/kg/injection, schedule: Q01DX005 (ip), vehicle: saline 103 % of control

CC1OC(O[C@@H]2C=C3CC[C@@H]4[C@H](CC[C@]5(C)[C@@H](c6ccc(=O)oc6)CC[C@]45O)[C@@]3(C)CC2)C(O)C(O)C1O (stereo partly specified)
inactive: dose: 1.25 mg/kg/injection, schedule: Q01DX010 (sc), vehicle: steriod suspending solution 110 % of control | dose: 2.5 mg/kg/injection, schedule: Q01DX010 (sc), vehicle: steriod suspending solution 110 % of control | dose: 5.0 mg/kg/injection, schedule: Q01DX010 (sc), vehicle: steriod suspending solution 110 % of control | dose: 10.0 mg/kg/injection, schedule: Q01DX010 (sc), vehicle: steriod suspending solution 115 % of control

O=C(Nc1ccccc1)C1(c2ccccc2)CCCCC1
inactive: dose: 25.0 mg/kg/injection, schedule: Q01DX005 (ip), vehicle: Klucel (hydroxypropylcellulose) (HPC) 101 % of control | dose: 50.0 mg/kg/injection, schedule: Q01DX005 (ip), vehicle: Klucel (hydroxypropylcellulose) (HPC) 99 % of control | dose: 100.0 mg/kg/injection, schedule: Q01DX005 (ip), vehicle: Klucel (hydroxypropylcellulose) (HPC) 100 % of control | dose: 200.0 mg/kg/injection, schedule: Q01DX005 (ip), vehicle: Klucel (hydroxypropylcellulose) (HPC) 93 % of control

CC(=O)/C(Cl)=N\O
inactive: dose: 3.12 mg/kg/injection, schedule: Q01DX005 (ip), vehicle: saline 100 % of control | dose: 6.25 mg/kg/injection, schedule: Q01DX005 (ip), vehicle: saline 107 % of control | dose: 12.5 mg/kg/injection, schedule: Q01DX005 (ip), vehicle: saline 109 % of control
